# Patent US20260216057A1, “PHARMACEUTICAL COMPOSITIONS FOR HERPES VIRUS” (priority 2022, published 2026)
# How the values were obtained:
# [1] = Example 6: pritelivir (dihydrate) suspension stability and solubility study; assay type: physicochemical; conditions: 0.9% NaCl + 0.5% polysorbate 80 vehicle, RT
# Protocol: An aqueous suspension of crystalline pritelivir free base (dihydrate) in a 0.9% NaCl+0.5% polysorbate 80 vehicle was prepared as follows: • 1) Vehicle (0.9% w/w NaCl and 0.5% w/w polysorbate 80) was prepared by dissolving NaCl and polysorbate 80 in water. • 2) Excess amounts of pritelivir (dihydrate) were weighed and added to the vehicle to achieve −3 mg/mL suspension. • 3) The suspension was sonicated for 15 minutes, then agitated at 500 rpm at room temperature. • 4) At 24 hours, the suspension was filtrated and the filter cake was dried and analyzed by XRPD. The filtrate was analyzed by HPLC to determine solubility. The HPLC methodology and conditions used to quantify pritelivir in the filtrate are described in Table 11.
# [2] = cited from earlier work
# recurrent genital herpes = conditions: oral 100, 200, 400, 1200 mg; patients with recurrent genital herpes; cited from earlier work
# recurrent genital HSV-2 = conditions: 28 days daily oral dosing; pritelivir 100 mg (after 400 mg loading dose), valacyclovir 500 mg; cited from earlier work
compound,measurement,setting,value
"Cc1nc(N(C)C(=O)Cc2ccc(-c3ccccn3)cc2)sc1S(N)(=O)=O [Dihydrate, N-methyl-N-(4-methyl-5-sulfamoyl-1,3-thiazol-2-yl)-2-[4-(pyridin-2-yl)phenyl]acetamide]",solubility at 24 h,"[1]; 0.9% NaCl + 0.5% polysorbate 80 aqueous vehicle, aqueous with cosolvent or surfactant or cyclodextrin, thermodynamic from solid, n = 1",16.5 µg/mL
same,Insoluble material (solid form by XRPD after solubility experiment),[1]; 24 hours,Dihydrate
Nc1nc2c(ncn2COCCO)c(=O)[nH]1 [acyclovir],human bioavailability following oral administration,[2],10-20%
Cc1cccc(C)c1N(CC(=O)Nc1ccc(-c2ncon2)cc1)C(=O)C1CCS(=O)(=O)CC1 [amenamevir],time to lesion healing vs placebo,recurrent genital herpes,only significantly different between the very highest 1200 mg single dose group and the placebo-tested group
CC(C)[C@H](N)C(=O)OCCOCn1cnc2c(=O)[nH]c(N)nc21 [valacyclovir],"HSV shedding, % of genital swabs analysed",recurrent genital HSV-2,5.3%
